Results on four molecules are retold here after patent US7183075B2, “Purified and isolated potassium-chloride cotransporter nucleic acids and polypeptides and therapeutic and screening methods using same” (Vanderbilt University, priority 2000, dated 2007).

Like-named read-outs stand apart in the source and are kept apart here.

The assay has as its target T1, hKCC2 (Homo sapiens, UniProt Q9H2X9, L143X/L381X/L939X).
T1 construct: expressed in transfected cells; host or cells: Xenopus laevis oocytes injected with 25 ng hKCC2 cRNA
T1 sequence (Q9H2X9 with tags, fused parts or gaps isoform Q9H2X9-2 L120X/L358X/L916X limits assumed): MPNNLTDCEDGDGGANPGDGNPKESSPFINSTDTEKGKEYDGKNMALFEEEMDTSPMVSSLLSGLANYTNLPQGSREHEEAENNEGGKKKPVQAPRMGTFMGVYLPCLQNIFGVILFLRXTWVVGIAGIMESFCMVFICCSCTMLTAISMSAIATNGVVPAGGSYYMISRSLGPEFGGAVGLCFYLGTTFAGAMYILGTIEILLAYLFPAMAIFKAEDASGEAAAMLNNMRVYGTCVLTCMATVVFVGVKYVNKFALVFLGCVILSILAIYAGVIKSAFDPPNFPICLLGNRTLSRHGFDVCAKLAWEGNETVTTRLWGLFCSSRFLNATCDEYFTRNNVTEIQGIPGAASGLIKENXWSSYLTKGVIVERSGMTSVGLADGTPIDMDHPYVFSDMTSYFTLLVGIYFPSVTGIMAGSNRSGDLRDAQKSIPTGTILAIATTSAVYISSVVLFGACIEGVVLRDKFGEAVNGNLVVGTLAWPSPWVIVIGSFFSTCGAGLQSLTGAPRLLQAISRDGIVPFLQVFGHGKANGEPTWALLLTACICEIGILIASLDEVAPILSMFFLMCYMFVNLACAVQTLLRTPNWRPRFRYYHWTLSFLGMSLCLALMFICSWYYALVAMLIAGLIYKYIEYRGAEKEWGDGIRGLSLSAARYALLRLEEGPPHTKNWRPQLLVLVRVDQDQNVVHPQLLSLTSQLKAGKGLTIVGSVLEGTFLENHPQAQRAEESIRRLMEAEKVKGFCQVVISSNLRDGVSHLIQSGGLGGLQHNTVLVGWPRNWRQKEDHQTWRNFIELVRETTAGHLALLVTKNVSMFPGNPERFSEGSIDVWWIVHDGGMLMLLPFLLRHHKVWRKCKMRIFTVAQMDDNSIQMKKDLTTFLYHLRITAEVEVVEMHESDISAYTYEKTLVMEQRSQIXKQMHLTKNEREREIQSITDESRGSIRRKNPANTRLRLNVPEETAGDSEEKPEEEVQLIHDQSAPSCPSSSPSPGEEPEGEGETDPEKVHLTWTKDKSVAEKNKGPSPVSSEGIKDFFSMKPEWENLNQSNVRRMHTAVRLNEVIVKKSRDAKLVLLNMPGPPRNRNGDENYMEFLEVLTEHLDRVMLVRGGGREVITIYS
The assay can be described thus: 86Rb+ uptake (K+-Cl- cotransport) in Xenopus oocytes injected with hKCC2 cRNA. The format is cell-based. How it is done: Oocytes were surgically collected from anesthetized female Xenopus adults under 0.17% tricaine and incubated for 1 hour with vigorous shaking in frog Ringer ND96 (96 mM sodium chloride, 2 mM potassium chloride, 1.8 mM calcium chloride, 1.0 mM magnesium chloride, and 5 mM Hepes/Tris, pH 7.4) in the presence of 2 mg/ml collagenase B. Oocytes were then washed four times in ND96, manually defolliculated, and incubated overnight in ND96 at 18° C. On the next day, defolliculated stage V–VI oocytes were injected with 50 nl of water or a solution containing cRNA at a concentration of 0.25–0.5 μg/μl (25 ng/oocyte). Oocytes were incubated at 17–18° C. in ND96 (96 mM sodium chloride, 2 mM potassium chloride, 1.8 mM calcium chloride, 1.0 mM magnesium chloride, and 5 mM Hepes/Tris, pH 7.4), supplemented with 2.5 mM sodium pyruvate and 5 mg/100 ml gentamicin, for 3–4 days. The incubation medium was changed every 24 hours. On the day of the experiment, oocytes were switched to Cl^−-free ND96 (96 mM Na^+ Na^+ isethionate, 2 mM K^+ gluconate, 6 mM Ca^2+ gluconate, 1 mM Mg^2+ gluconate, 5 mM Hepes, 2.5 mM sodium pyruvate, 5 mg/100 ml gentamicin, pH 7.4) for 2 hours prior to the uptake assay.
K^+—Cl^− cotransport was assessed by measuring tracer ^86Rb^+ uptake (NEN® Life Science Products of Boston, Mass.) in experimental groups of at least 15 oocytes. […] All uptake solutions also contained 1.8 mM CaCl2, 1 mM MgCl2, 5 mM Hepes, pH 7.4, and were supplemented with 1 mM ouabain and […] ^86Rb^+. Isotonic conditions were generated by supplementing the same solutions with 3.5 g/100 ml sucrose to reach isosmolar conditions for oocytes (˜210 mOsm/kg). Ouabain was added to prevent ^86Rb^+ uptake via the Na^+—K^+-ATPase. The absence of extracellular Na^+ and the hypotonicity of the uptake medium prevented ^86Rb^+ uptake via the endogenous Na^+—K^+-2Cl^− cotransporter that is present in oocytes (Gamba et al. (1994) J Biol Chem 269:17713–17722).
All uptake assays were performed at 32° C. At the end of the uptake period, oocytes were washed five times in ice-cold uptake solution without isotope to remove extracellular fluid tracer. Oocytes were dissolved in 10% SDS, and tracer activity was determined for each oocyte by β-scintillation counting.
Uptake assays to detect K^+—Cl^− cotransport mediated by a hKCC2 were performed using similar methods.
FIG. 10 presents line graphs depicting concentration dependence of K^+—Cl^− cotransport mediated by hKCC2, which was used to calculate ion affinities using analogous methods. Uptake assays were simultaneously assessed in water-injected oocytes. To determine ^86Rb^+ uptake due to KCC2, the mean values for water groups were subtracted from the mean values for corresponding KCC2 groups. Uptake assays in hypotonic media were performed for 60 minutes with a fixed concentration of K^+or Cl^− at 50 mM. The concentration of the counterion was varied from 0 to 50 mM as indicated.

[1] abbreviates: hKCC2, hypotonic, counterion fixed at 50 mM, 86Rb+ as substitute for K+, read-out: Km (Michaelis-Menten fit).

Regarding `Cl` [Chloride], the Km (KCC2, read-out: Chloride Km) was determined as 6.3 mM and the Michaelis constant (Km) under setting [1] is 6.31 mM.
On to `[K+]` [Potassium], for which the Km runs as follows: (KCC2, read-out: Potassium Km) 9.3 mM; under setting [1], 9.3 mM.
On to `NS(=O)(=O)c1cc(C(=O)O)c(NCc2ccco2)cc1Cl` [furosemide], for which the half-maximal inhibitory concentration (IC50) (KCC2) was 90 µM.
As to HgCl2 [Hg—Cl2], the “response of KCC2 to mercury” value (50 μM HgCl2, hypotonic) is “sensitive”.

The term Km denotes the substrate concentration at which the rate is half of its maximum. For orientation: IC50 means the point on the concentration scale where inhibition reaches its midpoint.
